The text below walks through data of patent publication US12351580B2, “NLRP3 modulators” (Innate Tumor Immunity, Inc., priority 2017, dated 2025).

In one assay the target is T1, TLR7 (Homo sapiens, UniProt Q9NYK1).
T1 construct: host or cells: HEK-Blue cells (human HEK) co-expressing TLR7 and an NF-kB/AP1-inducible SEAP reporter
T1 sequence (Q9NYK1 27-1049): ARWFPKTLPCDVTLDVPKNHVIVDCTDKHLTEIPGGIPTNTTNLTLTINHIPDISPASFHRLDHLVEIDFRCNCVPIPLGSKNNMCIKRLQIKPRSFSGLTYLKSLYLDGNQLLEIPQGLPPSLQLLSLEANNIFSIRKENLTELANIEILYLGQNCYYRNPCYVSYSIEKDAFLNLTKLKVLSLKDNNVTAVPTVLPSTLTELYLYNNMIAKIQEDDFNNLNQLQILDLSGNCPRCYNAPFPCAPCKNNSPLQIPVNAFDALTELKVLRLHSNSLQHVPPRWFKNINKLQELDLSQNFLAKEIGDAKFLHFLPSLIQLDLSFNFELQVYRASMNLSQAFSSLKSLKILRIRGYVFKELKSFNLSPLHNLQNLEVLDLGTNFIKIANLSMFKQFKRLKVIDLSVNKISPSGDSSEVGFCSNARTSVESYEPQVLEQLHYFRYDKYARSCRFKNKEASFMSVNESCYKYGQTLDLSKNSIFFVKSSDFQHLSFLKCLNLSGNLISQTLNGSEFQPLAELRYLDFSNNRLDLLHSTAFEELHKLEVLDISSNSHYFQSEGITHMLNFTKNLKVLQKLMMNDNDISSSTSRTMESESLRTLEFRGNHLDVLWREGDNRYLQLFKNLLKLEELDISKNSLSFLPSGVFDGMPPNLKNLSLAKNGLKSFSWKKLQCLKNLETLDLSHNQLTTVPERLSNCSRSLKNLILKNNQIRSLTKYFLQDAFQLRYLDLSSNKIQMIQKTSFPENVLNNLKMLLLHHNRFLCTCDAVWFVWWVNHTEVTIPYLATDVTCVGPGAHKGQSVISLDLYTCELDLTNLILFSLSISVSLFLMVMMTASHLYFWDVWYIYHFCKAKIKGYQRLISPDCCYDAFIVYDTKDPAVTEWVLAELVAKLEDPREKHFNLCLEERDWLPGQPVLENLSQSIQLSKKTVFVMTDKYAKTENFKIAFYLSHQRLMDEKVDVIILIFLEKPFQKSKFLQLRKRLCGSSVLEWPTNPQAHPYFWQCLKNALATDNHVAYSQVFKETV
The experiment in a line: In vitro human TLR7 binding reporter assay (HEK-Blue, NF-kB/AP1-inducible SEAP). In kind it is cell-based. Particulars: activity range symbols. A digest of the protocol:
(§1)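 Reporter cells are plated at 15,000 per well and rested 24 h. Next day, test compounds or DMSO are dispensed, followed by 18 h incubation at 37 °C, 5% CO2.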

Another assay concerns the target T2, TLR8 (Homo sapiens, UniProt Q9NR97).
T2 construct: host or cells: HEK-Blue cells (human HEK) co-expressing TLR8 and an NF-kB/AP1-inducible SEAP reporter
T2 sequence (Q9NR97 27-1041): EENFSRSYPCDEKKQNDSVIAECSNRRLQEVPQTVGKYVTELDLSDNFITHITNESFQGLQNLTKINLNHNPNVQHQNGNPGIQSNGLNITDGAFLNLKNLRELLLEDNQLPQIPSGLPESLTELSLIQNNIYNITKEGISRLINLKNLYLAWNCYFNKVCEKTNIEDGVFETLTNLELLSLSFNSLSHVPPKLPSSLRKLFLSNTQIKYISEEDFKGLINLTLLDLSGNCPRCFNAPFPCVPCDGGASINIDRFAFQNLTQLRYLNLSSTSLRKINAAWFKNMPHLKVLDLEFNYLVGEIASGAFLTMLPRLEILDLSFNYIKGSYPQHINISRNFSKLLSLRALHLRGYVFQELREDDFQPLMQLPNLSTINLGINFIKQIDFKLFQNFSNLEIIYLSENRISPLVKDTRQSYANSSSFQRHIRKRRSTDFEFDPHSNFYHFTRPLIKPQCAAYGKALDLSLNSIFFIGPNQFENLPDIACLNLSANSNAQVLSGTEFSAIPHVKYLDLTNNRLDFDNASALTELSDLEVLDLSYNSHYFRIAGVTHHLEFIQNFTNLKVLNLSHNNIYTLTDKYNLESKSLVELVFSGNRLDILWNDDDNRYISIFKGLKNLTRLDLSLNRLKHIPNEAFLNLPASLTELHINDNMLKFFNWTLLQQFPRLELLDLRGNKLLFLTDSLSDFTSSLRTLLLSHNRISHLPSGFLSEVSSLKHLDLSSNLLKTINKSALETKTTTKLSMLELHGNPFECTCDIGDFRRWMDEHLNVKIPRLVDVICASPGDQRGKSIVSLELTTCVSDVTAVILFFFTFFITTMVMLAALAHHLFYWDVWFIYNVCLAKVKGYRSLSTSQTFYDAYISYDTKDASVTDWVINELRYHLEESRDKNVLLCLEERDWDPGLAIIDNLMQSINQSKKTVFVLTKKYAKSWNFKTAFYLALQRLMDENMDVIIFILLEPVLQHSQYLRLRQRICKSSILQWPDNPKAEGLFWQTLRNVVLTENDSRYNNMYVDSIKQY
The experiment in a line: In vitro human TLR8 binding reporter assay (HEK-Blue, NF-kB/AP1-inducible SEAP). The following applies: activity range symbols. In kind it is cell-based. A digest of the protocol:
as §1
A general note: In a reporter assay the amount or activity of a reporter protein is the signal.

pEC50: −log10 of the molar value.

By pEC50 is commonly meant the EC50 on a negative log10 scale, so that one unit is a factor of ten. The low end stands for a high EC50, the high end for a low EC50.

For the compound `CCC(=O)N(CC)Cc1nc2c(N)nc3cc(-n4cccn4)ccc3c2n1CC` [Compound 481, N-{[4-amino-1-ethyl-7-(1H-pyrazol-1-yl)-1H-imidazo[4,5-c]quinolin-2-yl]methyl}-N-ethylpropanamide], the pEC50 at TLR7 and on TLR8 was less than 4.00 throughout.

Consider `CCN(Cc1nc2c(N)nc3cc(-c4cccs4)ccc3c2n1CCO)C(C)=O` [Compound 482, N-{[4-amino-1-(2-hydroxyethyl)-7-(thiophen-2-yl)-1H-imidazo[4,5-c]quinolin-2-yl]methyl}-N-ethylacetamide], for which the pEC50 at TLR7 and at TLR8 was less than 4.00 throughout.
